Results: US5888995A, “Steroid esters” (priority 1991, dated 1999)
Like-named read-outs stand apart in the source and are kept apart here.

Key:
[1] = system: Sephadex induced lung edema (left lung lobe); test: Desired local antiinflammatory activity on airway mucosa (left lung lobe), Sephadex induced lung edema model, local instillation; format: in vivo, Sprague Dawley rats; details: Rattus norvegicus; in liposomes; instilled into left lung lobe 2 h before Sephadex; dose to reduce the edema by 50%; lungs weighed 20 h after Sephadex; read-out: ED50 (left lung administration) Left lung lobe
Method: (§1) A) Test model for desired local antiinflammatory activity on airway mucosa (left lung lobe).
(§2) Sprague Dawley rats (250 g) were slightly anaesthetized. with Ephrane and the glucocorticosteroid test preparation (in liposomes suspended in saline) in a volume of 0.5 ml/kg was instilled into the left lung lobe only. Two hours later a suspension of Sephadex (5 mg/kg in a volume of 1 ml/kg) was instilled in the trachea well above the bifurcation so that the suspension reached both the left and right lung lobes. Twenty hours later the rats were killed and the left lung lobes dissected out and weighed. Control groups got vehicle instead of glucocorticosteroid preparation and saline instead of Sephadex suspension so that lung weight due to non-drug-treated, Sephadex-induced edema and the normal lung weight could be determined.

[2] = system: Sephadex induced lung edema (lung); test: Unwanted systemic effect by orally absorbed glucocorticosteroid, Sephadex induced lung edema model, oral administration; format: in vivo, Sprague Dawley rats; details: Rattus norvegicus, 20 h, in liposomes, given orally 2 h before Sephadex, dose to reduce the edema by 50%, read-out: ED50 (p.o. adm.) lung
Method: (§3) B) Test model for unwanted systemic effect by orally absorbed glucocorticosteroid
(§4) Sprague Dawley rats (250 g) were slightly anaesthetized with Ephrane and the GCS test preparation in a volume of 1.0 ml/kg was given orally. Two hours later a suspension of Sephadex (5 mg/kg in a volume of 1 ml/kg) was instilled in the trachea well above the bifurcation so that the suspension reached both the left and the right lung lobes. Twenty hours later, the rats were killed and the lung lobes were weighed. Control groups got vehicle instead of glucocorticosteroid preparation and saline instead of Sephadex suspension so that lung weight due to non-drug-treated, Sephadex-induced edema and the normal lung weight could be determined.

[3] = system: Sephadex induced lung edema; test: Lung selectivity: ratio of oral and local ED50 in the Sephadex induced lung edema model; format: in vivo, Sprague Dawley rats; details: in liposomes; ED50 p.o. / ED50 left lung lobe
From the text: A considerable fraction of inhaled GCS is deposited in the pharynx and is subsequently swallowed, ending up in the gut. This fraction contributes to the unwanted side effects of the steroid since it is acting outside the area (the lung) intended for treatment. Therefore, it is favourable to use a GCS with high local anti-inflammatory activity in the lung but low GCS-induced effects after oral administration. Studies were therefore done in order to determine the GCS-induced effects after local application in the lung as well as after peroral administration, and the differentiation between glucocorticosteroid actions in the treated lung region and outside this area was tested in the following way.
as §1, §2, §3, §4

[4] = cited from earlier work; for unwanted GCS actions within the general circulation: highest of the recommended doses for inhalation

For `CCCCCCCCCCCCCCCC(=O)OCC(=O)[C@@]1(O)[C@H](C)C[C@H]2[C@@H]3C[C@H](F)C4=CC(=O)C=C[C@]4(C)[C@@]3(F)[C@@H](O)C[C@@]21C` [Flumethasone-21-palmitate], the ED50 [1] was 0.0022 µmol/kg, the ED50 [2] was 0.018 µmol/kg and the “Ratio oral/local administration (ED50)” value [3] was 8.

With `CCCCCCCCCCCCCCCC(=O)OCC(=O)[C@@]12O[C@H](CCC)O[C@@H]1C[C@H]1[C@@H]3C[C@H](F)C4=CC(=O)CC[C@]4(C)[C@@]3(F)[C@@H](O)C[C@@]12C` [Example 1, (22R)-16α,17α-Butylidenedioxy-6α,9α-difluoro-11β-hydroxy-21-palmitoyloxypregn-4-ene-3,20-dione] the ED50 [1] was 0.0015 µmol/kg, the ED50 [2] was 0.839 µmol/kg and the “Ratio oral/local administration (ED50)” value [3] was 559.

In the case of `CCCC1O[C@@H]2C[C@H]3[C@@H]4CCC5=CC(=O)C=C[C@]5(C)[C@H]4[C@@H](O)C[C@]3(C)[C@]2(C(=O)CO)O1` (some centres unmarked) [budesonide], the “unwanted GCS actions within the general circulation” value [4] is listed as “unwanted GCS actions within the general circulation have been reported” and the safety margin ([4]; inhaled, clinical use) is listed as “rather narrow safety margin”.

In the case of `CCCCCCCCCCCCCCCC(=O)OCC(=O)[C@@]12O[C@@H](CCC)O[C@@H]1C[C@H]1[C@@H]3C[C@H](F)C4=CC(=O)C=C[C@]4(C)[C@@]3(F)[C@@H](O)C[C@@]12C` [Example 7, (22S)-16α,17α-Butylidenedioxy-6α,9α-difluoro-11β-hydroxy-21-palmitoyloxypregna-1,4-diene-3,20-dione], the ED50 [1] is reported as 0.0023 µmol/kg, the ED50 [2] is reported as 0.568 µmol/kg and the “Ratio oral/local administration (ED50)” value [3] is reported as 247.

For `CCC(=O)OCC(=O)[C@@]1(OC(=O)CC)[C@@H](C)C[C@H]2[C@@H]3CCC4=CC(=O)C=C[C@]4(C)[C@@]3(Cl)[C@@H](O)C[C@@]21C` [beclomethasone 17α,21-dipropionate], the “unwanted GCS actions within the general circulation” value [4] is listed as “unwanted GCS actions within the general circulation have been reported” and the safety margin ([4]; in vivo) is listed as “rather narrow safety margin”.

For `CCCCCCCCCCCCCCCC(=O)OCC(=O)[C@@]12O[C@@H](CCC)O[C@@H]1C[C@H]1[C@@H]3C[C@H](F)C4=CC(=O)CC[C@]4(C)[C@@]3(F)[C@@H](O)C[C@@]12C` [Example 3, (22S)-16α,17α-Butylidenedioxy-6α,9α-difluoro-11β-hydroxy-21-palmitoyloxypregn-4-ene-3,20-dione], the ED50 [1] was 0.0035 µmol/kg, the ED50 [2] was 0.554 µmol/kg and the “Ratio oral/local administration (ED50)” value [3] was 158.

For `CCCCCCCCCCCCCCCC(=O)OCC(=O)[C@@]12OC(CCC)O[C@@H]1C[C@H]1[C@@H]3CCC4=CC(=O)C=C[C@]4(C)[C@H]3[C@@H](O)C[C@@]12C` (stereo partly drawn) [Budesonide-21-palmitate (RS), Budesonide-21-palmitate], the ED50 [1] was 0.023 µmol/kg, the ED50 [2] was 1.52 µmol/kg and the “Ratio oral/local administration (ED50)” value [3] was 66.

`CCCCCCCCCCCCCCCC(=O)OCC(=O)[C@@]12O[C@H](CCC)O[C@@H]1C[C@H]1[C@@H]3C[C@H](F)C4=CC(=O)C=C[C@]4(C)[C@@]3(F)[C@@H](O)C[C@@]12C` [Example 6, (22R)-16α,17α-Butylidenedioxy-6α,9α-difluoro-11β-hydroxy-21-palmitoyloxypregna-1,4-diene-3,20-dione] gave an ED50 [1] of 0.0018 µmol/kg.
